Measurements from the NIST ThermoML archive (doi:10.1021/je900656c).
Numbers after ± are expanded uncertainties. Values belong to the compound of their own block, whether it stands above or below them.

Tests used:
[1] = 303.15 K, 101 kPa, Liquid; for viscosity: Capillary tube (Ostwald / Ubbelohde) method; for mass density: Pycnometric method
[2] = wn = mass fraction of the nth substance listed; conditions: 303.15 K, 101 kPa, Liquid; for viscosity: Capillary tube (Ostwald / Ubbelohde) method; for mass density: Pycnometric method

viscosity [1]: 1.404 ± 0.023 mPa·s
mass density [1]: 956 ± 2 kg/m3
SMILES: COCCO [2-methoxyethan-1-ol]

viscosity [1]: 0.523 ± 0.01 mPa·s
mass density [1]: 782 ± 1 kg/m3
SMILES: CO [methanol]

viscosity ([2]; w2 = 0): 0.523 ± 0.01 mPa·s
mass density ([2]; w2 = 0): 782 ± 1 kg/m3
SMILES: CO [methanol] + COCCO

viscosity ([2]; w1 = 0.1): 0.538 ± 0.011 mPa·s
viscosity ([2]; w1 = 0.2): 0.557 ± 0.011 mPa·s
viscosity ([2]; w1 = 0.3): 0.577 ± 0.011 mPa·s
viscosity ([2]; w1 = 1): 1.404 ± 0.023 mPa·s
mass density ([2]; w1 = 0.1): 798 ± 1 kg/m3
mass density ([2]; w1 = 0.2): 817 ± 2 kg/m3
mass density ([2]; w1 = 0.3): 833 ± 2 kg/m3
mass density ([2]; w1 = 1): 956 ± 2 kg/m3
SMILES: COCCO [2-methoxyethan-1-ol] + CO
